In ChEMBL document CHEMBL3758172, “Design and synthesis of fluorescent and biotin tagged probes for the study of molecular actions of FAF1 inhibitor” (Bioorg Med Chem Lett, 2016):
Active and inactive are the calls of the source. The calls are words filed in the database; no cut-off is given here.

Assays:
SH-SY5Y [1] = assay: Inhibition of ischemic cell death in human SH-SY5Y cells assessed as cell viability pretreated for 30 mins followed by addition of 500 uM H2O2 measured after 6 hrs by MTS assay; format: functional, cell-based
SH-SY5Y [2] = assay: Inhibition of ischemic cell death in human SH-SY5Y cells assessed as LDH release at 20 uM pretreated for 30 mins followed by addition of 500 uM H2O2 measured after 6 hrs; format: functional, cell-based
[3] = molecular target: T1, FAS-associated factor 1 (Homo sapiens) (UniProt Q9UNN5); assay: Binding affinity to FLAG-tagged FAF1 (unknown origin) expressed in H2O2-treated human SH-SY5Y cells after 12 hrs by immunoblot analysis; format: cell-based
T1 sequence (whole entry): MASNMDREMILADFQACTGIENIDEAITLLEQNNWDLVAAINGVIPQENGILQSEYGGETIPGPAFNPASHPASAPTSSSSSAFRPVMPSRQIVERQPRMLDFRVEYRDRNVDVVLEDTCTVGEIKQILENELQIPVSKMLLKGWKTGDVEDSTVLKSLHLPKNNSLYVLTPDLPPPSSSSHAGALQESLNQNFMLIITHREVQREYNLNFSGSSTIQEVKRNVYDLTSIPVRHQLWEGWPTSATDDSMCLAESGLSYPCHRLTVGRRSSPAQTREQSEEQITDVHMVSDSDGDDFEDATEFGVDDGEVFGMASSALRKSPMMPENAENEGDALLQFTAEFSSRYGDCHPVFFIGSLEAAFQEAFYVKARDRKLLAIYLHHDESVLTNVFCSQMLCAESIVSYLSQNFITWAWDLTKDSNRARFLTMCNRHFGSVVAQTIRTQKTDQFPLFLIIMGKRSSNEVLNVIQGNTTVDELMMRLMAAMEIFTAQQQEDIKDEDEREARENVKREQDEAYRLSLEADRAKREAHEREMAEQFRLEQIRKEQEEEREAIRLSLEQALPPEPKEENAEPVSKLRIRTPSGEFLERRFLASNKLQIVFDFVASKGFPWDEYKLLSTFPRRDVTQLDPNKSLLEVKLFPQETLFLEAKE

[4] = molecular target: T1, FAS-associated factor 1 (Homo sapiens); assay: Binding affinity to FLAG-tagged FAF1 (unknown origin) expressed in H2O2-treated human SH-SY5Y cells at 100 uM after 12 hrs by immunoblot analysis; format: cell-based

inhibition [3] | inhibition [4] | SMILES | inhibition (SH-SY5Y [1]) | inhibition (SH-SY5Y [2])
– | – | O=C(CSc1ccc(Br)cc1)Nc1cn(CCc2ccccc2)nc1C(=O)O | Active | Active
Active | – | CN(C)c1cccc2c(S(=O)(=O)NCCCCOc3ccc(CCn4cc(NC(=O)CSc5ccc(Br)cc5)c(C(=O)O)n4)cc3)cccc12 | Active | Active
– | Active | O=C(CCCC[C@@H]1SC[C@@H]2NC(=O)N[C@@H]21)NCCCCOc1ccc(CCn2cc(NC(=O)CSc3ccc(Br)cc3)c(C(=O)O)n2)cc1 | Active | Active
